Experimental data reported in PMC9229919, “4-Aminoquinoline-Based Adamantanes as Potential Anticholinesterase Agents in Symptomatic Treatment of Alzheimer’s Disease” (Pharmaceutics, 2022).
Read-outs that look alike come from different tables or passages of the source.

Legend:
[1] = biological target: T1, purified human BChE (Homo sapiens, UniProt P06276); assay: biochemical; format: biochemical
T1 construct: possibly also a gift of Dr Florian Nachon (the sentence is ambiguous)
Procedure, shortened: (§1)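 Modified Ellman assay with acetylthiocholine and DTNB in 0.1 M sodium phosphate pH 7.4 (enzymes diluted with 0.1% BSA), ≤0.2% DMSO, 25 °C. At least three inhibitor concentrations per substrate level; Ki,app from Hunter–Downs equation, Ki from y-intercept and inhibition type from Ki,app vs [S].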

[2] = biological target: T2, recombinant human AChE (Homo sapiens, UniProt P22303); assay: biochemical; format: biochemical; conditions: for IS: IS = Ki(BChE)/Ki(AChE), IS > 1 selective to AChE
T2 construct: gift of Dr Florian Nachon (Armed Forces Biomedical Research Institute, Brétigny-sur-Orge, France)
Procedure, shortened: as §1

[3] = Reverse-phase thin-layer chromatographic lipophilicity (RF, RM0); format: physicochemical; conditions: for RM0: intercept of RM = RM0 + bC; for b: slope of RM = RM0 + bC; for RF, Methanol/Water/Hydrochloric acid (conc.), mobile phase I / RF, Dioxane/Water/Hydrochloric acid (conc.), mobile phase II / RF, Methanol/Water/Hydrochloric acid (conc.), mobile phase II / RF, Acetone/Water/Hydrochloric acid (conc.), mobile phase III / RF, Dioxane/Water/Hydrochloric acid (conc.), mobile phase III / RF, Methanol/Water/Hydrochloric acid (conc.), mobile phase III / RF, Dioxane/Water/Hydrochloric acid (conc.), mobile phase IV / RF, Acetone/Water/Hydrochloric acid (conc.), mobile phase IV / RF, Methanol/Water/Hydrochloric acid (conc.), mobile phase IV / RF, Acetone/Water/Hydrochloric acid (conc.), mobile phase IX / RF, Methanol/Water/Hydrochloric acid (conc.), mobile phase IX / RF, Dioxane/Water/Hydrochloric acid (conc.), mobile phase V / RF, Acetone/Water/Hydrochloric acid (conc.), mobile phase V / RF, Methanol/Water/Hydrochloric acid (conc.), mobile phase V / RF, Dioxane/Water/Hydrochloric acid (conc.), mobile phase VI / RF, Acetone/Water/Hydrochloric acid (conc.), mobile phase VI / RF, Methanol/Water/Hydrochloric acid (conc.), mobile phase VI / RF, Acetone/Water/Hydrochloric acid (conc.), mobile phase VII / RF, Methanol/Water/Hydrochloric acid (conc.), mobile phase VII / RF, Acetone/Water/Hydrochloric acid (conc.), mobile phase VIII / RF, Methanol/Water/Hydrochloric acid (conc.), mobile phase VIII: RP-18 silica; for RF, Methanol/Water/Hydrochloric acid (conc.), mobile phase I: I = 90%MeOH/5%H2O/5%HCl; for RF, Dioxane/Water/Hydrochloric acid (conc.), mobile phase II: II = 80%Dioxane/15%H2O/5%HCl; for RF, Methanol/Water/Hydrochloric acid (conc.), mobile phase II: II = 85%MeOH/10%H2O/5%HCl; for RF, Acetone/Water/Hydrochloric acid (conc.), mobile phase III: III = 70%AC/25%H2O/5%HCl; for RF, Dioxane/Water/Hydrochloric acid (conc.), mobile phase III: III = 70%Dioxane/25%H2O/5%HCl; for RF, Methanol/Water/Hydrochloric acid (conc.), mobile phase III: III = 80%MeOH/15%H2O/5%HCl; for RF, Dioxane/Water/Hydrochloric acid (conc.), mobile phase IV: IV = 60%Dioxane/35%H2O/5%HCl; for RF, Acetone/Water/Hydrochloric acid (conc.), mobile phase IV: IV = 65%AC/30%H2O/5%HCl; for RF, Methanol/Water/Hydrochloric acid (conc.), mobile phase IV: IV = 75%MeOH/20%H2O/5%HCl; for RF, Acetone/Water/Hydrochloric acid (conc.), mobile phase IX: IX = 40%AC/55%H2O/5%HCl; for RF, Methanol/Water/Hydrochloric acid (conc.), mobile phase IX: IX = 50%MeOH/45%H2O/5%HCl; for RF, Dioxane/Water/Hydrochloric acid (conc.), mobile phase V: V = 50%Dioxane/45%H2O/5%HCl; for RF, Acetone/Water/Hydrochloric acid (conc.), mobile phase V: V = 60%AC/35%H2O/5%HCl; for RF, Methanol/Water/Hydrochloric acid (conc.), mobile phase V: V = 70%MeOH/25%H2O/5%HCl; for RF, Dioxane/Water/Hydrochloric acid (conc.), mobile phase VI: VI = 40%Dioxane/55%H2O/5%HCl; for RF, Acetone/Water/Hydrochloric acid (conc.), mobile phase VI: VI = 55%AC/40%H2O/5%HCl; for RF, Methanol/Water/Hydrochloric acid (conc.), mobile phase VI: VI = 65%MeOH/30%H2O/5%HCl; for RF, Acetone/Water/Hydrochloric acid (conc.), mobile phase VII: VII = 50%AC/45%H2O/5%HCl; for RF, Methanol/Water/Hydrochloric acid (conc.), mobile phase VII: VII = 60%MeOH/35%H2O/5%HCl; for RF, Acetone/Water/Hydrochloric acid (conc.), mobile phase VIII: VIII = 45%AC/50%H2O/5%HCl; for RF, Methanol/Water/Hydrochloric acid (conc.), mobile phase VIII: VIII = 55%MeOH/40%H2O/5%HCl
Procedure, shortened: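 Reverse-phase TLC using mobile phases of methanol, acetone or dioxane with water and hydrochloric acid. Methanol varied in 10% steps; development distance 4.5 cm, ambient temperature (22±2 °C). RF measured and RM0 derived from retention.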

[4] = biological target: T1, purified human BChE; design: method as in PMID 31600664; conditions: previously tested derivative 2 (CQAd); ref [38]; cited from earlier work
[5] = Ferric reducing antioxidant power (FRAP) assay; conditions: for FRAP: mean ± standard error of three experiments;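 as to FRAP: expressed as µM Fe2+ equivalents from an FeSO4·7H2O standard curve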
Procedure, shortened: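 Compounds at 10 and 100 µM were mixed with FRAP reagent (300 mM acetate buffer pH 3.6, TPTZ in HCl, FeCl3, 10:1:1) and incubated 60 min at 37 °C. Fe^2+-TPTZ formation read at 593 nm against a blank. Values derived from an Fe2SO4·7H2O standard curve, three independent experiments.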

[6] = physchem; conditions: octadecyl-modified silica RP-18W F254s TLC plates, pH 0.5
Excerpt: The mobile phase contained an organic modifier (methanol, acetone or dioxane), water, and hydrochloric acid. The content of hydrochloric acid was kept constant at 5% v/v, while the portions of organic modifier and water varied. […] Mobile phase MeOH/H2O/HCl, 70:25:5 (vol%) was used to determine the partition coefficients, logDexp, of the tested compounds at pH 0.5 (Supplementary Materials File S3 Table S7).
Chromatographic determination of lipophilicity
Lipophilicity of synthesized compounds was evaluated under reversed-phase thin-layer
chromatographic condition using the vertical developing chamber (CAMAG, Muttenz, Switzerland)
The mobile phase contained organic modifier (methanol, acetone or dioxane), water and hydrochloric acid. The content of hydrochloric acid was kept constant at 5 %v/v
while the portion of the organic modifier and water were changed. Methanol was varied in the range
with an increment of 10%. The chamber was saturated with a mobile phase being used 15 minutes
before chromatogram development. The solvent developing distance was 4.5 cm. Detection of
All experiments were performed at ambient temperature (22±2 °C). Retention parameters were calculated as previously described [7].
The logD values of the investigated substances were determined by the interpolation procedure. […]
LogD values of the investigated substances were determined from the equation of the calibration […]

[7] = logarithm of Ki in µM, BChE, dependent variable of the QSAR model, read-out: Y Measured 2 log(ki)Bche, log (Ki/µM BChE) (converted)
[8] = Acetone/Water/Hydrochloric acid (conc.)
[9] = Dioxane/Water/Hydrochloric acid (conc.)
[10] = Methanol/Water/Hydrochloric acid (conc.)

T2 sequence (P22303 32-614): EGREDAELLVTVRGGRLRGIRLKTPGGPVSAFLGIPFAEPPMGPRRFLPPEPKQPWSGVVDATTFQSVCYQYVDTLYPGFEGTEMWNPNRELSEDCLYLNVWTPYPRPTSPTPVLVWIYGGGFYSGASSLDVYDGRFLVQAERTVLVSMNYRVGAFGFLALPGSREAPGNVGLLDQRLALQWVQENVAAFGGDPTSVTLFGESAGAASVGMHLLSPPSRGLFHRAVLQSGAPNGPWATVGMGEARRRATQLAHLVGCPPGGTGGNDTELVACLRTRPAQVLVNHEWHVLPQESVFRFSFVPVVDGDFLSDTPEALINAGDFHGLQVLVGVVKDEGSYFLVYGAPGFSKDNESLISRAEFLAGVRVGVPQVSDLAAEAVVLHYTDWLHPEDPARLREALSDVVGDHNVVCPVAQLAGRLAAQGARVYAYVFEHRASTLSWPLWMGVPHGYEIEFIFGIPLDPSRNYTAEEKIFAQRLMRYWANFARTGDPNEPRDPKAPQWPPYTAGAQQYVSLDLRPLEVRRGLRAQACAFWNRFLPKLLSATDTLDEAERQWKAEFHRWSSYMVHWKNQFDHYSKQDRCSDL
T1 sequence (P06276 29-602): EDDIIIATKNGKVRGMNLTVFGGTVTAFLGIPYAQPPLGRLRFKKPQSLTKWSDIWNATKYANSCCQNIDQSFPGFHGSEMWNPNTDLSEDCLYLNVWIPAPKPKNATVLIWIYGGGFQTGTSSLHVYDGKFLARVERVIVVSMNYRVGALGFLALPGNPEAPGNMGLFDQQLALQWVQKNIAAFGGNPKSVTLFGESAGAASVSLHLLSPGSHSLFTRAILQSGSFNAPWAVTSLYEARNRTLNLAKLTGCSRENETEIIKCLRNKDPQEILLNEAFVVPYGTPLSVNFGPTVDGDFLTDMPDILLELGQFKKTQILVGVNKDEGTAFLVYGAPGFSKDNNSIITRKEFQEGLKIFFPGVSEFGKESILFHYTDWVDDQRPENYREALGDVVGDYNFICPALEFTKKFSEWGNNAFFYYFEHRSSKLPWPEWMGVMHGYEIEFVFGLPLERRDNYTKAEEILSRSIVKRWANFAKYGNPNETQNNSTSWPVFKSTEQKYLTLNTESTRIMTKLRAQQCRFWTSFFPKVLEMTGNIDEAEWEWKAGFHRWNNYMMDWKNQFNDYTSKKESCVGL

| Structure (SMILES) | Ki [1, 7] [µM] | IS [2] | RM0 [3, 8] | b [3, 8] | RM0 [3, 9] | b [3, 9] | RM0 [3, 10] | b [3, 10] | RF, Methanol/Water/Hydrochloric acid (conc.), mobile phase I [3] | RF, Dioxane/Water/Hydrochloric acid (conc.), mobile phase II [3] | RF, Methanol/Water/Hydrochloric acid (conc.), mobile phase II [3] | RF, Acetone/Water/Hydrochloric acid (conc.), mobile phase III [3] | RF, Dioxane/Water/Hydrochloric acid (conc.), mobile phase III [3] | RF, Methanol/Water/Hydrochloric acid (conc.), mobile phase III [3] | RF, Dioxane/Water/Hydrochloric acid (conc.), mobile phase IV [3] | RF, Acetone/Water/Hydrochloric acid (conc.), mobile phase IV [3] | RF, Methanol/Water/Hydrochloric acid (conc.), mobile phase IV [3] | RF, Acetone/Water/Hydrochloric acid (conc.), mobile phase IX [3] | RF, Methanol/Water/Hydrochloric acid (conc.), mobile phase IX [3] | RF, Dioxane/Water/Hydrochloric acid (conc.), mobile phase V [3] | other results |
| --- | --- | --- | --- | --- | --- | --- | --- | --- | --- | --- | --- | --- | --- | --- | --- | --- | --- | --- | --- | --- | --- |
| Clc1ccc2c(NCCCNCC34CC5CC(CC(C5)C3)C4)ccnc2c1 [Compound 2] | 3.2 | 4.2 | 1.795 | 2.949 | 0.8129 | 1.796 | 2.34 | 3.123 | 0.73 | 0.78 | 0.67 | 0.61 | 0.73 | 0.52 | 0.73 | 0.58 | 0.53 | 0.15 | 0.11 | 0.55 | less potent inhibitors of BChE than compounds 3 or 4 [1]: about 3.2 times; Y Measured 1 log(ki)Ache ([2]; log (Ki/µM AChE)): -1.14E-01; RF, Acetone/Water/Hydrochloric acid (conc.), mobile phase V [3]: 0.5; RF, Methanol/Water/Hydrochloric acid (conc.), mobile phase V [3]: 0.47; RF, Dioxane/Water/Hydrochloric acid (conc.), mobile phase VI [3]: 0.4; RF, Acetone/Water/Hydrochloric acid (conc.), mobile phase VI [3]: 0.41; RF, Methanol/Water/Hydrochloric acid (conc.), mobile phase VI [3]: 0.43; RF, Acetone/Water/Hydrochloric acid (conc.), mobile phase VII [3]: 0.35; RF, Methanol/Water/Hydrochloric acid (conc.), mobile phase VII [3]: 0.25; RF, Acetone/Water/Hydrochloric acid (conc.), mobile phase VIII [3]: 0.3; RF, Methanol/Water/Hydrochloric acid (conc.), mobile phase VIII [3]: 0.19; Ki [4]: 3.2 ± 0.4 µM; FRAP ([5]; 10 µM compound): 19 ± 2 µM; FRAP ([5]; 100 µM compound): 64 ± 5 µM |
| Clc1ccc2c(Nc3cccc4c(NCCC56CC7CC(CC(C7)C5)C6)cccc34)ccnc2c1 [Compound 19] | 21.9 | 5.8 | 1.657 | 2.289 | 1.551 | 2.623 | 3.685 | 4.54 | 0.67 | 0.7 | 0.61 | 0.49 | 0.66 | 0.44 | 0.63 | 0.41 | 0.35 | 0.15 | 0 | 0.53 | decrease in BChE inhibition vs compound 5 [1]: up to 275 times; Ki ([1]; ± standard error, 25 °C, ATCh substrate, read-out: Ki BChE): 22 ± 2 µM; Ki ([2]; log (Ki/µM AChE), read-out: Y Measured 1 log(ki)Ache (converted)): 3.8 µM; Ki ([2]; ± standard error, 25 °C, ATCh substrate, read-out: Ki AChE): 3.8 ± 0.3 µM; RF, Acetone/Water/Hydrochloric acid (conc.), mobile phase V [3]: 0.3; RF, Methanol/Water/Hydrochloric acid (conc.), mobile phase V [3]: 0.3; RF, Dioxane/Water/Hydrochloric acid (conc.), mobile phase VI [3]: 0.13; RF, Acetone/Water/Hydrochloric acid (conc.), mobile phase VI [3]: 0.28; RF, Methanol/Water/Hydrochloric acid (conc.), mobile phase VI [3]: 0.21; RF, Acetone/Water/Hydrochloric acid (conc.), mobile phase VII [3]: 0.25; RF, Methanol/Water/Hydrochloric acid (conc.), mobile phase VII [3]: 0.1; RF, Acetone/Water/Hydrochloric acid (conc.), mobile phase VIII [3]: 0.2; RF, Methanol/Water/Hydrochloric acid (conc.), mobile phase VIII [3]: 0.04; FRAP ([5]; 10 µM compound): 336 ± 12 µM; FRAP ([5]; 100 µM compound): 2450 ± 210 µM; reducing power (in words) ([5]; 10 and 100 µM): very good reducing power comparable to that of BHT and Trolox; chromatographic logD [6]: -4.12 |
